# In ChEMBL document CHEMBL6087448, “Eradication of Therapy-Resistant Cancer Stem Cells by Novel Telmisartan Derivatives” (J Med Chem, 2025):
# Activity calls are given as the source filed them. No cut-off for these calls is given here.
# Key:
# [1] = Toxicity in female NOD/SCID mouse xenografted with human K562-r cells assessed as body weight loss at 50 mg/kg, po administered once daily for 30 days; assay type: organism-based; settings: in vivo, 720 h, time 30 day
# K-562R [2] = test: Antitumor activity against human K562-r cells xenografted in female NOD/SCID mouse model assessed as tumor growth inhibition at 50 mg/kg, po administered once daily for 30 days; assay type: functional, organism-based; settings: time 30.0 day
# A2780/Taxol [3] = test: Cytotoxicity against human Paclitaxel-resistant A2780 cells assessed as metabolic activity at 10 nM measured after 72 hrs by MTT assay relative to control; assay type: functional
# [4] = tested on: Paclitaxel-resistant IGROV-1 cell; test: Inhibition of side population phenotype in human Paclitaxel-resistant IGROV-1 cells expressing ABCB1 at 10 uM incubated for 90 mins by DCV staining based flow cytometric analysis; assay type: functional
# PBMC [5] = test: Effect on colony formation in human PBMC derived from healthy donors at 10 uM measured after 2 weeks in presence of imatinib by inverted microscopic analysis; assay type: functional, cell-based
# A2780/Taxol [6] = test: Inhibition of side population phenotype in human Paclitaxel-resistant A2780 cells expressing ABCB1 at 10 uM incubated for 90 mins by DCV staining based flow cytometric analysis; assay type: functional, cell-based
# A549 [7] = test: Effect on STAT5 protein expression in human A549 cells at 10 uM incubated for 72 hrs by Western blotting based immunoassay; assay type: functional, cell-based
# K562-r [8] = test: Inhibition of STAT5 phosphorylation in human K562-r cells at 4 uM measured after 72 hrs by Western blotting based immunoassay; assay type: cell-based
# [9] = (§1) Inhibition of side population phenotype in human K562-r cells at 10 uM incubated for 90 mins by DCV staining based flow cytometric analysis relative to control; assay type: functional; settings: K-562R
# [10] = tested on: Docetaxel-resistant PC-3 cell; test: Enhancement of docetaxel-induced anti-metabolic activity against human Docetaxel-resistant PC-3 cell assessed as reduction in metabolic activity at 10 uM measured after 72 hrs by MTT assay; assay type: functional, cell-based
# K562-r [11] = test: Effect on STAT5 phosphorylation in human K562-r cells at 4 uM measured after 6 hrs by Western blotting based immunoassay; assay type: cell-based
# [12] = tested on: Docetaxel-resistant PC-3 cell; test: Inhibition of side population phenotype in human Docetaxel-resistant PC-3 cell expressing ABCB1 at 10 uM incubated for 90 mins by DCV staining based flow cytometric analysis; assay type: functional
# [13] = Apparent permeability across basolateral to apical side in human Caco-2 cells at 10 uM by LC-MS/MS analysis
# [14] = tested on: Paclitaxel-resistant IGROV-1 cell; test: Enhancement of paclitaxel-induced anti-metabolic activity in human Paclitaxel-resistant IGROV-1 cells assessed as reduction in metabolic activity upto 300 nM measured after 72 hrs by MTT assay; assay type: functional, cell-based
# K-562R [15] = test: Restoration of imatinib accumulation in human K562-r cells at 10 uM preincubated with compound for 1 hrs followed by imatinib addition and measured after 2 hrs by UHPLC-SIM-MS analysis; assay type: functional, cell-based; settings: time 3.0 hrs
# [16] = Apparent permeability across apical to basolateral side in human Caco-2 cells at 10 uM by LC-MS/MS analysis
# [17] = tested on: Paclitaxel-resistant IGROV-1 cell; test: Inhibition of STAT5 phosphorylation in human Paclitaxel-resistant IGROV-1 cells expressing ABCB1 at 10 uM incubated for 72 hrs by Western blotting based immunoassay
# A2780/Taxol [18] = test: Sensitization of paclitaxel-induced cytotoxicity against human Paclitaxel-resistant A2780 cells assessed as reduction in metabolic activity at 10 uM measured after 72 hrs by MTT assay; assay type: functional, cell-based
# [19] = tested on: Paclitaxel-resistant A2780; test: Inhibition of STAT5 phosphorylation in human Paclitaxel-resistant A2780 cells expressing ABCB1 at 10 uM incubated for 72 hrs by Western blotting based immunoassay; assay type: cell-based
# MCF7 [20] = test: Inhibition of side population phenotype in human MCF7 cells expressing ABCG2 at 10 uM incubated for 90 mins by DCV staining based flow cytometric analysis; assay type: functional, cell-based
# PBMC [21] = test: Inhibition of colony formation in human PBMC derived from TKI naive CML patients assessed as reduction in number of colonies at 1 uM incubated for 14 days in presence of imatinib by inverted microscopic analysis; assay type: functional, cell-based; settings: time 14.0 day
# [22] = tested on: Docetaxel-resistant DU145 cell; test: Enhancement of docetaxel-induced anti-metabolic activity against human Docetaxel-resistant DU145 cell assessed as reduction in metabolic activity at 10 uM measured after 72 hrs by MTT assay; assay type: functional, cell-based
# A549 [23] = test: Inhibition of side population phenotype in human A549 cells expressing ABCC1 at 10 uM incubated for 90 mins by DCV staining based flow cytometric analysis; assay type: functional, cell-based
# A2780/Taxol [24] = test: Effect on STAT5 protein expression in human Paclitaxel-resistant A2780 cells expressing ABCB1 at 10 uM incubated for 72 hrs by Western blotting based immunoassay; assay type: functional, cell-based
# COS-7 = test: Cytotoxicity against African green monkey COS-7 cells assessed as reduction in metabolic activity at 10 uM incubated for 72 hrs by MTT assay; assay type: toxicity, cell-based; settings: chlorocebus aethiops, cos-7, 72 h
# MCF7 [25] = test: Inhibition of STAT5 phosphorylation in human MCF7 cells at 10 uM incubated for 72 hrs by Western blotting based immunoassay; assay type: cell-based
# K-562R [26] = test: Cytotoxicity against human K562-r cells assessed as reduction in metabolic activity at 10 uM incubated for 72 hrs by MTT assay; assay type: functional, cell-based
# K-562R [27] = test: Inhibition of side population phenotype in human K562-r cells at 0.1 to 10 uM incubated for 90 mins by DCV staining based flow cytometric analysis; assay type: functional, cell-based; settings: dose 0.1-10 µM
# K-562R [28] = test: Effect on ABCB1 protein expression in human K562-r cells at 4 uM incubated for 72 hrs by Western blotting based immunoassay; assay type: functional, cell-based
# PBMC [29] = test: Effect on colony formation in human PBMC derived from healthy donors at 10 uM measured after 2 weeks by inverted microscopic analysis; assay type: functional, cell-based
# K562-r [30] = test: Inhibition of STAT5 phosphorylation in human K562-r cells at 4 uM measured after 6 hrs in presence of imatinib by Western blotting based immunoassay; assay type: cell-based
# [31] = tested on: Docetaxel-resistant DU145 cell; test: Inhibition of side population phenotype in human Docetaxel-resistant DU145 cell expressing ABCB1 at 10 uM incubated for 90 mins by DCV staining based flow cytometric analysis; assay type: functional
# A549 [32] = test: Inhibition of STAT5 phosphorylation in human A549 cells at 10 uM incubated for 72 hrs by Western blotting based immunoassay; assay type: cell-based
# MCF7 [33] = test: Effect on STAT5 protein expression in human MCF7 cells at 10 uM incubated for 72 hrs by Western blotting based immunoassay; assay type: functional, cell-based
# [34] = Aqueous solubility of compound measured after 48 hrs by HPLC analysis; assay type: physicochemical; settings: buffer
# K-562R [35] = test: Enhancement of imatinib-induced anti-metabolic activity in human K562-r cells at 0.5 to 8 uM measured after 72 hrs by MTT assay relative to control; assay type: functional; settings: dose 0.5-8 µM
# K-562R [36] = test: as §1; assay type: functional
# K-562R [37] = test: Sensitization of imatinib-induced cytotoxicity against human K562-r cells assessed as cell viability at 10 uM measured after 72 hrs by MTT assay relative to control; assay type: functional; settings: read-out: Activity
# K-562R [38] = test: Sensitization of imatinib-induced cytotoxicity against human K562-r cells assessed as reduction in metabolic activity at 0.5 to 10 uM measured after 72 hrs by MTT assay; assay type: functional, cell-based; settings: dose 0.5-10 µM
# [39] = Intrinsic clearance in rat hepatocytes measured per 10^6 cells; assay type: ADME, cell-based, Hepatocyte; settings: read-out: CLH
# [40] = tested on: Paclitaxel-resistant IGROV-1 cell; test: Downregulation of STAT5 protein expression in human Paclitaxel-resistant IGROV-1 cells expressing ABCB1 at 10 uM incubated for 72 hrs by Western blotting based immunoassay; assay type: functional
# [41] = Permeability of compound; assay type: ADME; settings: not told; read-out: permeability
# [42] = Cytotoxicity against human Docetaxel-resistant DU145 cell assessed as metabolic activity at 12.5 nM measured after 72 hrs by MTT assay relative to control; assay type: functional
# [43] = Toxicity in female NOD/SCID mouse xenografted with human K562-r cells assessed as body weight loss at 10 mg/kg, po co-administered with imatinib once daily for 30 days; assay type: organism-based; settings: in vivo, 720 h, time 30 day
# K-562R [44] = test: Antitumor activity against human K562-r cells xenografted in female NOD/SCID mouse model assessed as reduction in tumor volume by measuring treatment to control ratio at 10 mg/kg, po co-administered with imatinib once daily and measured after 33 days relative to control; assay type: functional; settings: time 33 day
# [45] = Toxicity in female NOD/SCID mouse xenografted with human K562-r cells assessed as body weight loss at 10 mg/kg, po administered once daily for 30 days; assay type: organism-based; settings: in vivo, 720 h, time 30 day
# K-562R [46] = test: Antitumor activity against human K562-r cells xenografted in female NOD/SCID mouse model assessed as reduction in tumor volume at 10 mg/kg, po co-administered with imatinib once daily and measured after 15 to 26 days; assay type: functional, organism-based; settings: time 15-26 day
# K-562R [47] = test: Antitumor activity against human K562-r cells xenografted in female NOD/SCID mouse model assessed as tumor growth inhibition at 10 mg/kg, po co-administered with imatinib once daily for 30 days; assay type: functional, organism-based; settings: time 30.0 day
# K-562R [48] = test: Antitumor activity against human K562-r cells xenografted in female NOD/SCID mouse model assessed as tumor growth inhibition at 10 mg/kg, po administered once daily for 30 days; assay type: functional, organism-based; settings: time 30.0 day
SMILES,inhibition [4],Activity (PBMC [5]),inhibition (A2780/Taxol [6]),Activity (A549 [7]),inhibition (K562-r [8]),Activity [10],Activity (K562-r [11]),inhibition [17],Activity (A2780/Taxol [18]),inhibition [19],inhibition (MCF7 [20]),inhibition (PBMC [21]),Activity [22],inhibition (A549 [23]),Activity (A2780/Taxol [24]),Activity (COS-7),inhibition (MCF7 [25]),Activity (K-562R [26]),Activity (K-562R [28]),Activity (PBMC [29]),further results
Cc1ccc(NC(=O)c2ccc(CN3CCN(C)CC3)cc2)cc1Nc1nccc(-c2cccnc2)n1 [IMATINIB],,,,,,,,,,,,,,,,,,,,,Activity [1]: Non-toxic; Activity (K-562R [2]): Active
CC(=O)O[C@H]1C(=O)[C@@]2(C)[C@H]([C@H](OC(=O)c3ccccc3)[C@]3(O)C[C@H](OC(=O)[C@H](O)[C@@H](NC(=O)c4ccccc4)c4ccccc4)C(C)=C1C3(C)C)[C@]1(OC(C)=O)CO[C@@H]1C[C@@H]2O [PACLITAXEL],,,,,,,,,,,,,,,,,,,,,Activity (A2780/Taxol [3]): >80%
CCCc1nc2c(C)cc(-c3nc4ccccc4n3C)cc2n1Cc1ccc(-c2ccccc2C(=O)OC)cc1,Active,inactive,Active,inactive,Active; Lesser Effect Observed,Active; Marginal Activity Observed,inactive,inactive,Active,Active,Active,Active,Active,Active,inactive,Non-toxic,Active,inactive,inactive,inactive,inhibition at 10 µM [9]: 100%; inhibition [12]: Active; Papp B→A at 10 µM [13]: 0.2 ×10⁻⁶ cm/s; Activity [14]: inactive; Activity (K-562R [15]): Active; Papp A→B at 10 µM [16]: 0.1 ×10⁻⁶ cm/s; inhibition (K-562R [27]): Active; Similar To Valspodar; inhibition (K562-r [30]): Active; inhibition [31]: Active; inhibition (A549 [32]): Active; Activity (MCF7 [33]): inactive
CCCc1nc2c(C)cc(-c3nc4ccccc4n3C)cc2n1Cc1ccc(-c2ccccc2C(=O)O)cc1,Active; Modest Effect Observed,inactive,Active; Modest Effect Observed,inactive,Active; Lesser Effect Observed,Active; Marginal Activity Observed,inactive,Active,Active,Active,Active,inactive,inactive,Active,inactive,Non-toxic,Active,inactive,inactive,inactive,solubility at 48 h [34]: 19.2 µM; Activity (K-562R [35]): <50%; inhibition (K-562R [36]): inactive; viability at 10 µM (K-562R [37]): 34%; Activity (K-562R [38]): Active; Marginal Enhancement Of Imatinib Activity Observed; Activity [14]: Active; hepatocyte CLint [39]: 23 µL/min/1e6 cells; inhibition (K562-r [30]): Active; inhibition [31]: Active; Modest Effect Observed; Activity [40]: Active; inhibition (A549 [32]): Active; Activity (MCF7 [33]): inactive; Papp [41]: 29 ×10⁻⁶ cm/s
CC(=O)O[C@@]12CO[C@@H]1C[C@H](O)[C@@]1(C)C(=O)[C@H](O)C3=C(C)[C@@H](OC(=O)[C@H](O)[C@@H](NC(=O)OC(C)(C)C)c4ccccc4)C[C@@](O)([C@@H](OC(=O)c4ccccc4)[C@H]21)C3(C)C [DOCETAXEL ANHYDROUS],,,,,,,,,,,,,,,,,,,,,Activity [42]: >80%
CCCc1nc2c(C)cc(-c3nc4ccccc4n3C)cc2n1Cc1ccc(-c2ccccc2C(N)=O)cc1,Active,inactive,Active,inactive,Active; Lesser Effect Observed,Active,inactive,Active,Active,Active,Active,Active,Active,Active,inactive,Non-toxic,Active,inactive,inactive,inactive,Activity [43]: Non-toxic; inhibition at 10 µM [9]: 100%; inhibition [12]: Active; T/C (K-562R [44]): 36%; Activity (K-562R [15]): Active; Activity [45]: Non-toxic; Activity (K-562R [46]): Active; Activity (K-562R [47]): Active; Strongest Inhibition Observed; Activity (K-562R [48]): Active; inhibition (K562-r [30]): Active; inhibition [31]: Active; inhibition (A549 [32]): Active; Activity (MCF7 [33]): inactive
